Reference: patent US9808003B2, “Herbicidally active 2-(substituted-phenyl)-cyclopentane-1,3-dione compounds and derivatives thereof” (Syngenta Limited, priority 2013, dated 2017)

Legend:
Assay type in all cases: in vivo
[1] = tested on: Echinochloa crus-galli (ECHCG); test: Test 1A glasshouse assay, post-emergence herbicidal activity; conditions: Echinochloa crus-galli, 312 h, application rate 250 g/ha, 13 days after application, visual (100%=total damage; 0%=no damage), read-out: Post-emergence Herbicidal Activity (% Phytotoxicity) ECHCG
In short: (§1)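 Herbicidal effect is scored by eye as % phytotoxicity (0–100%) 13 days after treatment of 8-day-old glasshouse-grown plants. The spray solution contains the technical active ingredient in acetone/water with 0.5% Tween 20.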

Lolium perenne (LOLPE) [2] = test: as above; conditions: Lolium perenne, 312 h, application rate 250 g/ha, 13 days after application, visual (100%=total damage; 0%=no damage), read-out: Post-emergence Herbicidal Activity (% Phytotoxicity) LOLPE
In short: as §1

[3] = tested on: Alopecurus myosuroides (ALOMY); test: Test 1A glasshouse assay, pre-emergence herbicidal activity; conditions: 312 h, 250 g/ha, 13 days after application, read-out: Pre-emergence herbicidal activity (% phytotoxicity) ALOMY
Avena fatua (AVEFA) = test: as above; conditions: 312 h, 250 g/ha, 13 days after application, read-out: Pre-emergence herbicidal activity (% phytotoxicity) AVEFA
[4] = tested on: Echinochloa crus-galli (ECHCG); test: as above; conditions: 312 h, 250 g/ha, 13 days after application, read-out: Pre-emergence herbicidal activity (% phytotoxicity) ECHCG
Lolium perenne (LOLPE) [5] = test: as above; conditions: 312 h, 250 g/ha, 13 days after application, read-out: Pre-emergence herbicidal activity (% phytotoxicity) LOLPE
Spring Wheat “Teal” = test: Test 1B glasshouse assay, post-emergence herbicidal activity against cereal crops; conditions: 14 DAA
In short: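 Visual percentage damage (100% = total, 0% = none) read 14 days after application, averaged over two replicates. Plants grown 14 days at 22/16 °C day/night before post-emergence spraying of unformulated compound (IF50/acetone, 0.5% v/v Adigor). Rates usually 60–120 g/ha; cloquintocet-mexyl 50 g/ha co-applied where stated.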

Spring Wheat “Freya” = test: as above
[6] = herbicide 30 g/ha, cloquintocet-mexyl 50 g/ha
[7] = herbicide 60 g/ha, cloquintocet-mexyl 0 g/ha
[8] = herbicide 60 g/ha, cloquintocet-mexyl 50 g/ha

Cc1cc(C)c(C2C(=O)CC(CCNC(=O)c3cccc(F)n3)C2=O)c(C)c1 (racemic) [Compound A89]
pest or weed control at 250 g/ha [1]: 100%
pest or weed control at 250 g/ha (Lolium perenne (LOLPE) [2]): 100%
inhibition at 250 g/ha [3]: 100%
inhibition at 250 g/ha (Avena fatua (AVEFA)): 100%
inhibition at 250 g/ha [4]: 100%
inhibition at 250 g/ha (Lolium perenne (LOLPE) [5]): 100%
Post-emergence herbicidal activity against cereal crops, percentage phytotoxicity, Spring Wheat “Teal” (Spring Wheat “Teal”; 30 g/ha herbicide, 50 g/ha cloquintocet-mexyl): 13%
Post-emergence herbicidal activity against cereal crops, percentage phytotoxicity, Spring Wheat “Teal” (Spring Wheat “Teal”; 45 g/ha herbicide, 50 g/ha cloquintocet-mexyl): 20%
Post-emergence herbicidal activity against cereal crops, percentage phytotoxicity, Spring Wheat “Teal” (Spring Wheat “Teal”; 60 g/ha herbicide, 0 g/ha cloquintocet-mexyl): 75%
Post-emergence herbicidal activity against cereal crops, percentage phytotoxicity, Spring Wheat “Teal” (Spring Wheat “Teal”; 60 g/ha herbicide, 50 g/ha cloquintocet-mexyl): 50%
Percentage Phytotoxicity Spring Wheat “Freya” (Spring Wheat “Freya”; [6]): 13%
Percentage Phytotoxicity Spring Wheat “Freya” (Spring Wheat “Freya”; [7]): 70%
Percentage Phytotoxicity Spring Wheat “Freya” (Spring Wheat “Freya”; [8]): 38%

Cc1cc(C)c(C2C(=O)CC(CCNC(=O)c3ccc(Br)cn3)C2=O)c(C)c1 (racemic) [Compound A120, 5-bromo-N-{2-[2,4-dioxo-3-(2,4,6-trimethylphenyl)cyclopentyl]ethyl}pyridine-2-carboxamide]
pest or weed control at 250 g/ha [1]: 100%
pest or weed control at 250 g/ha (Lolium perenne (LOLPE) [2]): 100%
inhibition at 250 g/ha [3]: 90%
inhibition at 250 g/ha (Avena fatua (AVEFA)): 70%
inhibition at 250 g/ha [4]: 100%
inhibition at 250 g/ha (Lolium perenne (LOLPE) [5]): 100%
Percentage Phytotoxicity Spring Wheat “Freya” (Spring Wheat “Freya”; [6]): 18%
Percentage Phytotoxicity Spring Wheat “Freya” (Spring Wheat “Freya”; herbicide 45 g/ha, cloquintocet-mexyl 50 g/ha): 30%
Percentage Phytotoxicity Spring Wheat “Freya” (Spring Wheat “Freya”; [7]): 55%
Percentage Phytotoxicity Spring Wheat “Freya” (Spring Wheat “Freya”; [8]): 30%
